Measured values from patent US7205382B2, “Peptides, the production and use thereof for binding immunoglobulins” (Fresenius Medical Care Affina GmbH, priority 2000, dated 2007).
Bridge positions count the residues as written; N and C are the ends. Ends that are not written are not given here. cellulose = not defined here; βAla = NCCC(=O)O

Experiments:
Type in all cases: binding
Parameters in all cases: key: No binding of immunoglobulin for the defined peptide variant, detection negative: 0; Binding of immunoglobulin for the defined peptide variant, detection positive: +
[1] = test system: immunoglobulins in human plasma; assay: Cellulose-immobilized 13-mer peptide variants incubated with human plasma, anti-human IgG-AP detection; conditions: human plasma as sample, diluted 1:10,000 in blocking buffer, 3 h room temperature
In short: (§1)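 SPOT-type 13-mer peptides on cellulose with a (βA)(βA) spacer, blocked in 5% saccharose/4% BSA in T-TBS pH 8.0. Incubated 3 h at RT with human IgG-Fc (1 μg/ml) or human serum/plasma (1:10,000), or with blocking buffer alone as the albumin specificity control. Bound IgG detected with AP-anti-human IgG (1.2 μg/ml) and NBT/BCIP colorimetric development at pH 9.5.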

human IgG-Fc = assay: Cellulose-immobilized 13-mer peptide variants incubated with human IgG-Fc, anti-human IgG-AP detection; conditions: IgG-Fc 1 μg/ml in blocking buffer, 3 h room temperature
In short: as §1

serum albumin = assay: Cellulose-immobilized 13-mer peptide variants incubated with serum albumin (negative control), anti-human IgG-AP detection; conditions: blocking buffer without addition, 3 h room temperature
In short: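 Spot membrane, (βA)(βA) spacer; T-TBS pH 8.0 wash, block 5% saccharose/4% BSA. 3 h RT with IgG-Fc 1 μg/ml, serum 1:10,000, or block buffer only (specificity control). 3× wash, AP-anti-human IgG 1.2 μg/ml, NBT/BCIP in pH 9.5 buffer.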

Substance | Result for incubation with human plasma (immunoglobulin binding detection) [1] | Result for incubation with human IgG-Fc (immunoglobulin binding detection) (human IgG-Fc) | Result for incubation with serum albumin (immunoglobulin binding detection) (serum albumin)
06T: cellulose-bound 13-mer variant DCAWHTGELVWCT-(βA)(βA) (DCAWHTGELVWCT-{βAla-βAla-cellulose}; disulfide 2-12 (inferred); not fully specified (N-terminus); printed as DCAWHTGELVWCT-(βA)(βA); reading uncertain) | 0 | + | 0
06V: cellulose-bound 13-mer variant DCAWHVGELVWCT-(βA)(βA) (DCAWHVGELVWCT-{βAla-βAla-cellulose}; disulfide 2-12 (inferred); not fully specified (N-terminus); printed as DCAWHVGELVWCT-(βA)(βA); reading uncertain) | 0 | 0 | 0
06W: cellulose-bound 13-mer variant DCAWHWGELVWCT-(βA)(βA) (DCAWHWGELVWCT-{βAla-βAla-cellulose}; disulfide 2-12 (inferred); not fully specified (N-terminus); printed as DCAWHWGELVWCT-(βA)(βA); reading uncertain) | 0 | 0 | 0
07A: cellulose-bound 13-mer variant DCAWHLAELVWCT-(βA)(βA) (DCAWHLAELVWCT-{βAla-βAla-cellulose}; disulfide 2-12 (inferred); not fully specified (N-terminus); printed as DCAWHLAELVWCT-(βA)(βA); reading uncertain) | 0 | 0 | 0
07C: cellulose-bound 13-mer variant DCAWHLCELVWCT-(βA)(βA) (DCAWHLCELVWCT-{βAla-βAla-cellulose}; not fully specified (N-terminus); printed as DCAWHLCELVWCT-(βA)(βA); cysteine pairing not given here; reading uncertain) | 0 | 0 | 0
07D: cellulose-bound 13-mer variant DCAWHLDELVWCT-(βA)(βA) (DCAWHLDELVWCT-{βAla-βAla-cellulose}; disulfide 2-12 (inferred); not fully specified (N-terminus); printed as DCAWHLDELVWCT-(βA)(βA); reading uncertain) | + | + | 0
07E: cellulose-bound 13-mer variant DCAWHLEELVWCT-(βA)(βA) (DCAWHLEELVWCT-{βAla-βAla-cellulose}; disulfide 2-12 (inferred); not fully specified (N-terminus); printed as DCAWHLEELVWCT-(βA)(βA); reading uncertain) | 0 | 0 | 0
07F: cellulose-bound 13-mer variant DCAWHLFELVWCT-(βA)(βA) (DCAWHLFELVWCT-{βAla-βAla-cellulose}; disulfide 2-12 (inferred); not fully specified (N-terminus); printed as DCAWHLFELVWCT-(βA)(βA); reading uncertain) | 0 | 0 | 0
07H: cellulose-bound 13-mer variant DCAWHLHELVWCT-(βA)(βA) (DCAWHLHELVWCT-{βAla-βAla-cellulose}; disulfide 2-12 (inferred); not fully specified (N-terminus); printed as DCAWHLHELVWCT-(βA)(βA); reading uncertain) | 0 | 0 | 0
07I: cellulose-bound 13-mer variant DCAWHLIELVWCT-(βA)(βA) (DCAWHLIELVWCT-{βAla-βAla-cellulose}; disulfide 2-12 (inferred); not fully specified (N-terminus); printed as DCAWHLIELVWCT-(βA)(βA); reading uncertain) | 0 | 0 | 0
07K: cellulose-bound 13-mer variant DCAWHLKELVWCT-(βA)(βA) (DCAWHLKELVWCT-{βAla-βAla-cellulose}; disulfide 2-12 (inferred); not fully specified (N-terminus); printed as DCAWHLKELVWCT-(βA)(βA); reading uncertain) | 0 | 0 | 0
07L: cellulose-bound 13-mer variant DCAWHLLELVWCT-(βA)(βA) (DCAWHLLELVWCT-{βAla-βAla-cellulose}; disulfide 2-12 (inferred); not fully specified (N-terminus); printed as DCAWHLLELVWCT-(βA)(βA); reading uncertain) | 0 | 0 | 0
07M: cellulose-bound 13-mer variant DCAWHLMELVWCT-(βA)(βA) (DCAWHLMELVWCT-{βAla-βAla-cellulose}; disulfide 2-12 (inferred); not fully specified (N-terminus); printed as DCAWHLMELVWCT-(βA)(βA); reading uncertain) | 0 | 0 | 0
07N: cellulose-bound 13-mer variant DCAWHLNELVWCT-(βA)(βA) (DCAWHLNELVWCT-{βAla-βAla-cellulose}; disulfide 2-12 (inferred); not fully specified (N-terminus); printed as DCAWHLNELVWCT-(βA)(βA); reading uncertain) | 0 | 0 | 0
07P: cellulose-bound 13-mer variant DCAWHLPELVWCT-(βA)(βA) (DCAWHLPELVWCT-{βAla-βAla-cellulose}; disulfide 2-12 (inferred); not fully specified (N-terminus); printed as DCAWHLPELVWCT-(βA)(βA); reading uncertain) | 0 | 0 | 0
07Q: cellulose-bound 13-mer variant DCAWHLQELVWCT-(βA)(βA) (DCAWHLQELVWCT-{βAla-βAla-cellulose}; disulfide 2-12 (inferred); not fully specified (N-terminus); printed as DCAWHLQELVWCT-(βA)(βA); reading uncertain) | 0 | 0 | 0
07R: cellulose-bound 13-mer variant DCAWHLRELVWCT-(βA)(βA) (DCAWHLRELVWCT-{βAla-βAla-cellulose}; disulfide 2-12 (inferred); not fully specified (N-terminus); printed as DCAWHLRELVWCT-(βA)(βA); reading uncertain) | 0 | 0 | 0
07S: cellulose-bound 13-mer variant DCAWHLSELVWCT-(βA)(βA) (DCAWHLSELVWCT-{βAla-βAla-cellulose}; disulfide 2-12 (inferred); not fully specified (N-terminus); printed as DCAWHLSELVWCT-(βA)(βA); reading uncertain) | 0 | 0 | 0
07T: cellulose-bound 13-mer variant DCAWHLTELVWCT-(βA)(βA) (DCAWHLTELVWCT-{βAla-βAla-cellulose}; disulfide 2-12 (inferred); not fully specified (N-terminus); printed as DCAWHLTELVWCT-(βA)(βA); reading uncertain) | 0 | 0 | 0
